Peptide text beside a SMILES is read from it. * marks the point of attachment. Propanoyl(3-maleimido) = O=C1C=CC(=O)N1CCC(=O)*
Species: Homo sapiens
Assay: Percent of unbound maleimide to human serum albumin
Type: functional

SMILES	Activity [%]
CC(=O)N[C@@H](CCCN=C(N)N)C(=O)N[C@@H](CC(N)=O)C(=O)N1CCC[C@H]1C(=O)N[C@@H](CC(=O)O)C(=O)NCC(=O)N[C@@H](CC(=O)O)C(=O)N[C@H](C(=O)NCC(=O)NCC(=O)N1CCC[C@H]1C(=O)N[C@@H](Cc1c[nH]c2ccccc12)C(=O)N[C@@H](C)C(=O)N[C@@H](Cc1ccc(O)cc1)C(=O)N[C@H](C(=O)N[C@H](C(=O)N[C@@H](CC(N)=O)C(=O)N1CCC[C@H]1C(=O)N[C@@H](CCCN=C(N)N)C(=O)N[C@@H](CCCCN)C(=O)N[C@@H](CC(C)C)C(=O)N[C@@H](Cc1ccc(O)cc1)C(=O)N[C@@H](CC(=O)O)C(=O)N[C@@H](Cc1ccc(O)cc1)C(=O)N[C@@H](CCCCNC(=O)CCN1C(=O)C=CC1=O)C(N)=O)[C@@H](C)O)[C@@H](C)O)C(C)C (Ac-RNPDGDVGGPWAYTTNPRKLYDYK(Propanoyl(3-maleimido))-NH2)	0.22
CC(C)C[C@H](NC(=O)[C@H](CCCCN)NC(=O)[C@H](CCCN=C(N)N)NC(=O)[C@@H]1CCCN1C(=O)CCN1C(=O)C=CC1=O)C(=O)N[C@@H](Cc1ccc(O)cc1)C(=O)N[C@@H](CC(=O)O)C(=O)N[C@@H](Cc1ccc(O)cc1)C(N)=O ({Propanoyl(3-maleimido)}-PRKLYDY-NH2)	1.1
CC(C)C[C@H](NC(=O)[C@H](CCCCN)NC(=O)[C@H](CCCN=C(N)N)NC(=O)[C@@H]1CCCN1C(=O)[C@H](CC(N)=O)NC(=O)[C@@H](NC(=O)[C@@H](NC(=O)[C@H](Cc1ccc(O)cc1)NC(=O)[C@H](C)NC(=O)[C@H](Cc1c[nH]c2ccccc12)NC(=O)[C@@H]1CCCN1C(=O)CNC(=O)CNC(=O)[C@@H](NC(=O)[C@H](CC(=O)O)NC(=O)CNC(=O)[C@H](CC(=O)O)NC(=O)[C@@H]1CCCN1C(=O)[C@H](CC(N)=O)NC(=O)[C@H](CCCN=C(N)N)NC(=O)CCN1C(=O)C=CC1=O)C(C)C)[C@@H](C)O)[C@@H](C)O)C(=O)N[C@@H](Cc1ccc(O)cc1)C(=O)N[C@@H](CC(=O)O)C(=O)N[C@@H](Cc1ccc(O)cc1)C(N)=O ({Propanoyl(3-maleimido)}-RNPDGDVGGPWAYTTNPRKLYDY-NH2)	1.6
